{"source": "paper PMC9576820", "about": "(The Journal of membrane biology, 2022)", "origin": "cited, not measured here", "system": "host cells, proteases, serum proteins"}
{"sequence": "RRGWALRLVLAY [ARVA]", "values": [{"measurement": "inhibition of antimicrobial activity by host factors", "result": "potently inhibited by host cell binding, proteolysis, and serum protein binding"}]}
